Laboratory results from PMC6112376, “Comprehensive Analyses and Prioritization of Tox21 10K Chemicals Affecting Mitochondrial Function by in-Depth Mechanistic Studies” (Environmental Health Perspectives, 2018).
Where a name gives a salt, the structure may show the parent alone. Read-outs that look alike come from different tables or passages of the source.

Columns and labels:
rat primary hepatocytes [1] = test system: rat primary hepatocytes
HepG2 cells [2] = details: cited from earlier work
HepG2 cells [3] = assay: cells; details: Homo sapiens; for IC50: HepG2, read-out: MMP assays IC50 (µM) HepG2; for Emax: HepG2, read-out: MMP assays efficacy (%) HepG2
rat primary hepatocytes [4] = assay: MMP assay in rat primary hepatocytes; details: for IC50: Rattus norvegicus, Hepatocyte, read-out: MMP assays IC50 (µM) Rat Hepatocytes
[5] = read-out: MMP assays IC50 (µM), qHTS-HepG2
[6] = read-out: MMP assays IC50 (µM) qHTS-HepG2

Structure (SMILES) | MMP assays efficacy (%) Rat Hepatocytes (rat primary hepatocytes [1]) | MMP assays efficacy (%) qHTS-HepG2 (HepG2 cells [2]) [%] | IC50 (HepG2 cells [2]; [5]) [µM] | IC50 (HepG2 cells [3]) [µM] | Emax (HepG2 cells [3]) [%] | IC50 (rat primary hepatocytes [4]) [µM] | IC50 (HepG2 cells [2]; [6]) [µM] | MMP assays IC50 (µM) Rat Hepatocytes (rat primary hepatocytes [4])
CC(C)[C@H](C(=O)OC(C#N)c1cccc(Oc2ccccc2)c1)c1ccc(OC(F)F)cc1 (stereo partly drawn) [Flucythrinate] | -57±39% | -84±23 | 35.7 ± 20 | 31.6 | 80 | 43.9 ± 17.4 | – | –
O=S1(=O)OCC2C(CO1)C1(Cl)C(Cl)=C(Cl)C2(Cl)C1(Cl)Cl (stereo not drawn) [Endosulfan sulfate] | -80+6% | -123±10 | – | 17.8 | 103 | 25.8 ± 10.1 | 16 ± 2.05 | –
CCCCC(=O)O[C@]1(C(=O)CO)[C@H](C)C[C@H]2[C@@H]3CCC4=CC(=O)C=C[C@]4(C)[C@@]3(F)[C@@H](O)C[C@@]21C [Dexamethasone valerate] | -66±25% | -74±6 | – | 17.3 | 114 | 23.5 ± 5.67 | 12.1 ± 4.39 | –
Oc1ccc(Oc2ccccc2)cc1 [Compound 4-Phenoxyphenol] | inactive | -106±22 | – | 47.6 | 104 | – | 28 ± 10.6 | inactive
Cc1c(Cl)cccc1Nc1ccccc1C(=O)O [Tolfenamic acid] | -105±5% | -115±7 | 11.9 | 17.3 | 98 | 14.8 ± 4.38 | – | –
CCCCCCCCSC(=O)Oc1cc(Cl)nnc1-c1ccccc1 [Pyridate] | -59±19% | -97±17 | 33.1 ± 4.58 | 35.5 | 44 | 50.5 ± 8.18 | – | –
CC(C)C[C@H]1C(=O)N2CCC[C@H]2[C@]2(O)O[C@](NC(=O)[C@@H]3C=C4c5cccc6[nH]c(Br)c(c56)C[C@H]4N(C)C3)(C(C)C)C(=O)N12 [Bromocriptine] | -68±7% | -112±8 | – | 21.8 | 121 | 13.2 ± 10.8 | 11.4 ± 1.58 | –
COC(=O)Nc1nc2ccc(C(=O)c3cccs3)cc2[nH]1 [Nocodazole] | inactive | -62±6 | 3.53 ± 1.63 | 2.18 | 87 | – | – | inactive
CCCSc1ccc2nc(NC(=O)OC)[nH]c2c1 [Albendazole] | -85±78% | -78±15 | – | 19.4 | 107 | 15.5 ± 21.7 | 9.35 ± 1.83 | –
C[C@@]12C(=O)OC(=O)[C@]1(C)[C@H]1CC[C@@H]2O1 [Cantharidin] | -91±63% | -67±9 | – | 0.12 | 98 | 0.45 ± 0.3 | 0.15 ± 0.08 | –
O=[N+]([O-])c1ccc2ccc3cccc4ccc1c2c34 [Compound 1-Nitropyrene] | -60±24% | -99±6 | – | 6.31 | 68 | 16.9 ± 4.77 | 2.01 ± 2.06 | –
CCOc1ccccc1OCCN[C@H](C)Cc1ccc(OC)c(S(N)(=O)=O)c1 [Tamsulosin hydrochloride] | -45±27% | -70±8 | 27.2 ± 2.92 | 30.8 | 80 | 25.1 ± 8.04 | – | –
ClC1=C(Cl)C2(Cl)C3C4C=CC(C4)C3C1(Cl)C2(Cl)Cl (stereo not drawn) [Aldrin] | inactive | -86±11 | – | 39.8 | 106 | – | 31.2 ± 7.21 | inactive
Cc1ccc2cc3c(ccc4ccccc43)c3c2c1CC3 [Compound 3-Methylcholanthrene] | inactive | -74±19 | – | 25.2 | 66 | – | 17.3 ± 13.2 | inactive
